Entries after “also recorded” stand apart in the source; their conditions may differ. Bounds are passed on as bounds.

In one assay the test system is eNOS expression. The assay is described as follows: eNOS expression by Western blot in ACE cells. The conditions noted are these: for effect of signalling inhibitors on VEGF-induced eNOS expression: with 500 pM rhVEGF; for eNOS expression, time course: 0-5 days, VEGF alone or co-incubated with L-NAME (2 mM) or SNAP; for eNOS expression with KDR-specific VEGF variants / eNOS expression with angiogenic factors: 500 pM; for eNOS expression with VEGF forms and receptor-selective variants: equal concentrations, two days; for effect on VEGF-induced eNOS expression, KDR tyrosine kinase inhibitor: co-incubated with 500 pM rhVEGF. Format: cell-based, bovine. On the procedure:
At the end of incubation, total cell lysates were prepared, and eNOS protein levels were determined by Western blot analysis.
Bovine adrenal cortex capillary endothelial cells (ACE) were prepared and maintained as previously described (Ferrara et.al., 1989 Biochem. Biophys. Res. Commun. 161:851–858). Briefly, cells were plated onto 6-well tissue culture plates (Costar) and grown in low glucose Dulbecco's modified Eagle's medium, supplemented with 2 mM […] (Life Technologies), 10% bovine calf serum (HyClone Lab., Inc.) and 100 μg/ml Penicillin/Streptomycin (Life Technologies). ACE cells were used between passages 4 and 8.
Medium was changed every 24 hours.
The methods for cell lysis and Western blot (WB) have been described in Shen et al., 1998 J. Biol. Chem. 273:29979–29985. A monoclonal anti-eNOS antibody was used at 1:2500 to probe eNOS protein. A secondary antibody conjugated with horseradish peroxidase (1:2500) (Zymed) and an enhanced chemiluminescent kit (Amershal Pharmacia Biotech) were used to visualize the eNOS immunoreactive bands. Multiple exposures of films were obtained to determine the optical exposure time. The protein bands were scanned by a densitometer and the relative intensities were quantified using IMAGEQUANT® software (Molecular Dynamics).
(§1) Confluent ACE cells were incubated with 500 pM rhVEGF. Total cell lysates were prepared as described above. Equal amounts of protein were denatured under reducing conditions and separated in a 10% Novex mini gel and transferred to PVDF membrane. eNOS protein signals were visualized by ECL and quantified using densitometry.
In general terms: Immunoblotting shows a protein as a band on a membrane.

A further assay relates to PAE/FLT-1 cells. The settings on record: 500 pM rhVEGF, 2 days. On the procedure:
Porcine aorta endothelial (PAE) cells, and receptor transfected PAE cells (PAE/KDR and PAE/FLT-1) were provided by Napoleone Ferrara (Genentech, Inc.) and cultured in Ham's F-12 medium containing 10% FBS (for PAE), or plus 250 μg/ml G480 (for PAE/KDR and PAE/FLT-1).
PAE, PAE/KDR and PAE/Flt-1 cells were incubated with or without 500 pM rhVEGF for 2 days. eNOS was detected as described above for Example 1. Other materials and methods used in this study were as described above for Example 1.

For a further assay, the system named is eNOS activity. The conditions noted are these: ACE cells. How it is done: as §1
In the next assay the target is T1, KDR receptor (Homo sapiens, UniProt P35968).
T1 construct: host or cells: CHO cells
T1 sequence (P35968 20-1356): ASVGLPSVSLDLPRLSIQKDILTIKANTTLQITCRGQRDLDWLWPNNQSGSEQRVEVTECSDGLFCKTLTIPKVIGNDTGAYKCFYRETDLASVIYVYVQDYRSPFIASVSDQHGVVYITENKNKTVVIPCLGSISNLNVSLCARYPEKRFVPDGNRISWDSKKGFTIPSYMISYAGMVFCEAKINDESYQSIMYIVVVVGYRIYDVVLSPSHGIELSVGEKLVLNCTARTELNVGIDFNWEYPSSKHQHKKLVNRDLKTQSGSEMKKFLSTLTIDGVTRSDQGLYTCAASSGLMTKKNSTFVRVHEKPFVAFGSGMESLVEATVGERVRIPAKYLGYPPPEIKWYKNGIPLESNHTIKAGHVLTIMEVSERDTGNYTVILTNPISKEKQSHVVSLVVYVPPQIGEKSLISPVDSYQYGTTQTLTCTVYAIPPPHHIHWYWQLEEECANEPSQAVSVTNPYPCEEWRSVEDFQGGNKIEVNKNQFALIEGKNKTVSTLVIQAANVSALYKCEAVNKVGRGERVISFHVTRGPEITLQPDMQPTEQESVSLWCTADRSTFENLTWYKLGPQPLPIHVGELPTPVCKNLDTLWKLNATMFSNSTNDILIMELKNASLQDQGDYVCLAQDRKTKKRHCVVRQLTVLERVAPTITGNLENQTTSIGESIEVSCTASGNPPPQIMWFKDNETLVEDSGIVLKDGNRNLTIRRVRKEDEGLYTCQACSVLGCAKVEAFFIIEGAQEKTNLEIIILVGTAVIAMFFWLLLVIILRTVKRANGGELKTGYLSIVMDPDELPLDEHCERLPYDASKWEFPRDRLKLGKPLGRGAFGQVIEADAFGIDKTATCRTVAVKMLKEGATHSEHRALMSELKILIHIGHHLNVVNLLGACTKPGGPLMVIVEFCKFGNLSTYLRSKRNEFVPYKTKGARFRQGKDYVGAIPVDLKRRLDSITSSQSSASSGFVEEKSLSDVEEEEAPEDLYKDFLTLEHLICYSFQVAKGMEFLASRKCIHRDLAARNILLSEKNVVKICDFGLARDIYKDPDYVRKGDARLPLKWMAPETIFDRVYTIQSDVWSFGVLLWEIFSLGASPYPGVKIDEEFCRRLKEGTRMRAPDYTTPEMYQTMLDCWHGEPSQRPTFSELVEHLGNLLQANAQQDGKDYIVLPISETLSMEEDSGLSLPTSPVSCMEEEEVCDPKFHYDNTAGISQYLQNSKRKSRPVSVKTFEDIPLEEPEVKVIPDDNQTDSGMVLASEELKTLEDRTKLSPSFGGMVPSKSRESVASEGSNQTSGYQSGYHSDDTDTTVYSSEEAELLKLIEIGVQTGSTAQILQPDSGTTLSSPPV
In words: RIA binding assay, KDR receptor.

In the next assay the test system is eNOS. The assay is described as follows: Association of proteins with eNOS (immunoprecipitation, Western blot) in endothelial cells. The conditions noted are these: VEGF 1-60 minutes.
The conditions of assay [1]: angina patients, prolonged time point, early results. The text has this: Luscher TF (1992) Br. J. Clin. Pharmacol. 34 Suppl. 1:29S–35S.
A further assay has as its system PKC. The settings on record: ACE cells, rhVEGF 500 pM, 10 minutes. On the procedure: Cytosolic and membrane fractions were prepared to investigate the re-distribution or PKC isoforms. […] (See FIG. 5A).
The conditions of assay [2]: coronary artery disease patients, intracoronary or intravenous infusion at 0.05 microgram/Kg body weight/minute. The text has this:
In one aspect, the invention provides methods for treating a NO associated disorder or condition such as hypertension, diabetes, thrombosis, angina, heart failure or atherosclerosis.

The target of assay [3] is Flt-1 receptor (Homo sapiens, UniProt P17948). In words: RIA binding assay, FLT-1 receptor. The text has this: The results are shown below in Table 6.
Sequence of Flt-1 receptor (Homo sapiens, UniProt P17948) (P17948 27-1338): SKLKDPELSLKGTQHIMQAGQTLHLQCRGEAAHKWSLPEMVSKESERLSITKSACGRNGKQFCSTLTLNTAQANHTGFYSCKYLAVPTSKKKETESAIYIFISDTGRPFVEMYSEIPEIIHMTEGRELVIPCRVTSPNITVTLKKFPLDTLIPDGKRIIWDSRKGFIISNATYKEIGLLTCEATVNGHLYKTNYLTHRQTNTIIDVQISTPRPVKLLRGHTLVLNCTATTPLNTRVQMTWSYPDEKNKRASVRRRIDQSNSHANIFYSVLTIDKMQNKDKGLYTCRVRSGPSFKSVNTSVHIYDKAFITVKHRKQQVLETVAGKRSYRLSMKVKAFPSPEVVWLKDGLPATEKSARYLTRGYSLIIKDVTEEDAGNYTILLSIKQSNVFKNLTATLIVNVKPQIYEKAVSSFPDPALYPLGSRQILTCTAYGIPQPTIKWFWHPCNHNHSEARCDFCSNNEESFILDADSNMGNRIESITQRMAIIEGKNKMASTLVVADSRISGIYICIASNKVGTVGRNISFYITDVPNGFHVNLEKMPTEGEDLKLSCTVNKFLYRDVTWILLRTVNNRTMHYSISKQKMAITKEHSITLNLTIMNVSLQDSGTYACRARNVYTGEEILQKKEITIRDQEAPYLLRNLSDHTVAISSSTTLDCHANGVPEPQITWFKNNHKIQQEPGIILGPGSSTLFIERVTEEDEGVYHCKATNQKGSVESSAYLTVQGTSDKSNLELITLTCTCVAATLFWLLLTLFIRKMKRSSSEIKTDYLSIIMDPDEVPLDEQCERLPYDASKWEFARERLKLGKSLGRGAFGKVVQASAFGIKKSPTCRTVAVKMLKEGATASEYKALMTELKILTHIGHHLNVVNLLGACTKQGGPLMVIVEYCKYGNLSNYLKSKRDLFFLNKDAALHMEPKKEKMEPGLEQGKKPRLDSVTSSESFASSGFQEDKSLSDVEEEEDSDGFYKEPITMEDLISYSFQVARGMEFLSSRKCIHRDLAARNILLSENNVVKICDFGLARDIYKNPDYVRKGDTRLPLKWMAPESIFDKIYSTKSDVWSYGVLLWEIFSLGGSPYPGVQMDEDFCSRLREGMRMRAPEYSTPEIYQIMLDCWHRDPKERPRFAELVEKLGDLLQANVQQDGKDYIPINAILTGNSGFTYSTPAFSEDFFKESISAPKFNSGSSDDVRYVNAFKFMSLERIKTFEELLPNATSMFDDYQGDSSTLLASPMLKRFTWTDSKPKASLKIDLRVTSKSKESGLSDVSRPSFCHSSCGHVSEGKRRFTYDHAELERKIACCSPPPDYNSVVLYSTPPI
Assay [4] addresses Flt-1 receptor. The assay is described as follows: Flt-1 receptor binding ELISA (inhibition of biotinylated native VEGF binding to Flt-IgG). The conditions noted are these: first figure of the cell, read-out: Binding to FLT-1 Receptor, concentration at midpoint absorbance. On the procedure:
Receptor binding assays were performed in 96-well immunoplates (Maxisorp, Nunc-Immunoplate, Nalge Nunc International, Rochester, N.Y.). Each well was coated with 100 μl of a solution containing 2 μg/ml of rabbit F(ab′)2 to human IgG Fc (Jackson ImmunoResearch, West Grove, Pa.) in 50 mM carbonate buffer at pH 9.6 and incubated at 4° C. overnight. The supernatant was then discarded, the wells were washed three times in washing buffer (0.05% Tween 20 in PBS), and the plate was blocked (150 μl per well) with block buffer (0.5% BSA, 0.01% thimerosal in PBS) at room temperature for one hour. The supernatant was discarded, and the wells were washed.
The wells were filled with 100 μl of a solution containing Flt-IgG (a chimeric Flt-human Fc molecule) at 50 ng/ml in assay buffer (0.5% BSA, 0.05% Tween 20 in PBS). The wells were incubated at room temperature for 1 hour and then washed three times in wash buffer (0.05% Tween 20 in PBS).
Aliquots of the mixture (100 μl) were added to the precoated microtiter wells and the plate was incubated for 2 hours at room temperature. […] Absorbance was read at 450 nm on a Vmax plate reader (Molecular Devices, Menlo Park, Calif.).
Titration curves were fit with a four-parameter nonlinear regression curve-fitting program (KaleidaGraph, Synergy Software, Reading, Pa.).
(In general: An ELISA detects its analyte on a solid surface through an enzyme-linked reagent.)

Sequence of Flt-1 receptor (P17948 27-327 limits assumed): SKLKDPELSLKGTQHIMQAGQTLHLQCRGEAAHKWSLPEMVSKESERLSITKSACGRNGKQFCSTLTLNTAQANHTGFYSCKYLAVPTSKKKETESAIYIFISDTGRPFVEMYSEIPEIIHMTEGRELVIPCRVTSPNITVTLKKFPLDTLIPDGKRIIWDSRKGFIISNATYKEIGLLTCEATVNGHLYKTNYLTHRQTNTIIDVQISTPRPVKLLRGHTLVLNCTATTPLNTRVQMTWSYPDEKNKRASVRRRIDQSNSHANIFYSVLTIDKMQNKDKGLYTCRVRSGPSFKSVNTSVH

As for `O=c1c(-c2ccc(O)cc2)coc2cc(O)cc(O)c12` [genistein, reference compound], in the assay with eNOS expression (2 days), the “effect of signalling inhibitors on VEGF-induced eNOS expression” value (“effect of signalling inhibitors” below) is given as “blocked VEGF-induced eNOS expression”.
Regarding VEGF, the “eNOS up-regulation in PAE/FLT-1 cells” value with PAE/FLT-1 cells is on record as “not in FLT-1 transfected PAE (PAE/FLT) cells; also recorded: not in FLT-1 containing PAE cells”. Further, the “eNOS activity, acute treatment” value in the assay with eNOS activity (0-60 min) is listed as “time-dependent increase”. For the same molecule, in the assay on eNOS activity (2 days VEGF), the “eNOS activity in treated cells versus untreated control cells” value is “about 5 fold”. The “Relative Binding Affinity KDR Receptor” value at KDR receptor is on record as 1 (97 pM). Moreover, in the assay with eNOS, the “eNOS association levels of caveolin and PLC-γ” value is “significantly reduces; also recorded: induces dissociation”; the “levels of Hsp90 and Hsp70 associated with eNOS” value was “increase the levels of Hsp90 and Hsp70 associated with eNOS; also recorded: increase association”. For the same molecule, in [1], the “angina class, angina frequency, treadmill times versus placebo” value is given as “trends of improvement”. Further, in the assay with PKC, the “re-distribution of PKC isoforms from cytosolic to membrane fractions” value is reported as “rapid re-distribution”. Besides, the “eNOS expression, time course” value in the assay with eNOS expression was “time-dependent but transient increase; also recorded: time-dependent increase in eNOS expression”. In addition, the “eNOS expression with KDR-specific VEGF variants” value in the assay with eNOS expression (2 days) is listed as “induced a similar degree of eNOS expression”. Moreover, the “peak eNOS expression” value with eNOS expression (2 days (48 hours) post exposure to 500 pM VEGF) is 5.5 fold. Also, in the assay with eNOS expression (dose-dependent up-regulation), the “concentration giving maximal increase of eNOS” value was 500 pM. Moreover, the “eNOS expression with VEGF forms and receptor-selective variants” value in the assay with eNOS expression (listed as VEGF165) is “induced a similar degree of eNOS expression; also recorded: induce eNOS up-regulation”. Moreover, in [2], the mean arterial pressure entry is “dose-rate dependent reduction in mean arterial pressure”. On Flt-1 receptor [3] (relative to Native VEGF 165), the “Relative Binding Affinity FLT-1 Receptor” value stood at 1. Further, the IC50 at Flt-1 receptor [3] (value in brackets, read-out: Binding affinity FLT-1 Receptor) turned out to be 0.037 nM.
For the molecule “HGF: heterodimeric form of recombinant human hepatocyte growth factor”, the “eNOS expression with angiogenic factors” value in the assay with eNOS expression (2 days) is listed as “capable of increasing eNOS expression”.
With “LK-VRB-2s*: VEGF (1-109) variant, D63S/G65M/L66R”, the IC50 at Flt-1 receptor [4] is greater than 400 nM. Besides, the “eNOS expression with KDR-specific VEGF variants” value in the assay with eNOS expression (2 days) is listed as “markedly up-regulated eNOS expression”.
“FGF: Recombinant human fibroblast growth factor (FGF) basic”: the “eNOS expression with angiogenic factors” value in the assay with eNOS expression (2 days) was “no significant effect”.
Regarding `Cc1ccc(-c2nn(C(C)(C)C)c3ncnc(N)c23)cc1` [PP1, reference compound], the “effect of signalling inhibitors” value in the assay on eNOS expression (2 days) is on record as “also blocked eNOS expression”.
For “EGF: recombinant human epidermal growth factor (NSDSECPLSHDGYCLHDGVCMYIEALDKYACNCVVGYIGERCQYRDLKWWELR; Epidermal growth factor; UniProt P01133 971-1023, looked up)”, in the assay with eNOS expression (2 days), the “eNOS expression with angiogenic factors” value was “no significant effect”.
Take “VEGF110: heparin binding domain-deficient variant made from VEGF165 by limited proteolytic digestion with plasmin”: the “eNOS expression with KDR-specific VEGF variants” value with eNOS expression (2 days) is “induced a similar degree of eNOS expression”. In addition, the “eNOS expression with VEGF forms and receptor-selective variants” value in the assay with eNOS expression is “induced a similar degree of eNOS expression; also recorded: induce eNOS up-regulation”.
Consider “LK-VRB-2f: full length 1-165 VEGF variant, D63S/G65M/L66R”, for which the “eNOS expression with KDR-specific VEGF variants” value in the assay with eNOS expression (2 days) was “markedly up-regulated eNOS expression”.
With `COC(=O)[C@@H](N)CCCNC(=N)N[N+](=O)[O-]` [L-NAME, L-N^G-Nitroarginine methyl ester, reference compound], in the assay with eNOS expression, the “eNOS expression, time course” value is recorded as “sustained increase”.
As to `CO[C@H]1[C@@H](OC)C[C@H](C)[C@@H](OC)C2=CC(=O)C=C(NC(=O)/C(C)=C/C=C\[C@H](OC)[C@@H](OC(N)=O)/C(C)=C/[C@@H]1C)C2=O` [herbimycin A, reference compound], the “effect of signalling inhibitors” value with eNOS expression (2 days) was “blocked VEGF-induced eNOS expression”.
Regarding “TGF-beta1: recombinant human transforming growth factor”, the “eNOS expression with angiogenic factors” value in the assay with eNOS expression (2 days) was “reduced endogenous eNOS expression”.
For the molecule `COC[C@H]1OC(=O)c2coc3c2[C@@]1(C)C1=C(C3=O)[C@@H]2CCC(=O)[C@@]2(C)C[C@H]1OC(C)=O` [Wortmannin, wortmannin, reference compound], the “effect of signalling inhibitors” value with eNOS expression (2 days) was “no significant effect”.
With `CC(C)c1cc(/C=C(\C#N)C(=O)NCCCc2ccccc2)cc(C(C)C)c1O` [SU1498, reference compound], in the assay with eNOS expression (100 μM, 500 pM rhVEGF, 2 days), the “effect on VEGF-induced eNOS up-regulation at high concentration” value is listed as “completely blocked”. For the same molecule, the “effect on VEGF-induced eNOS expression, KDR tyrosine kinase inhibitor” value with eNOS expression (2 days) is “dose-dependent prevention”; in the assay with eNOS expression (2 days, listed as SU-149 g), “dose dependent inhibition”.
For the molecule `CCCCCCCCCCCCCC(=O)O[C@@H]1[C@@H](C)[C@@]2(O)[C@@H](C=C(CO)C[C@]3(O)C(=O)C(C)=C[C@@H]23)[C@@H]2C(C)(C)[C@]12OC(C)=O` [PMA, phorbol 12-myristate 13-acetate, reference compound], the “eNOS levels after PKC activation” value with eNOS expression is “time-dependent (FIG. 5C) and dose-dependent (data not shown) increase in eNOS levels; also recorded: increased eNOS levels”.

The record behind these values is patent publication US7078382B1, “Modulation of eNOS activity and therapeutic uses thereof” (Genentech, Inc., priority 1999, dated 2006).
